Experimental data from PMC4148173 (Journal of Medicinal Chemistry, 2014).

Experiments:
human D3R [1] = target: T1, human D3R (Homo sapiens, UniProt P35462); assay: β-Arrestin-2 recruitment assay; type: cell-based; conditions: for D3R IC50 ± SEM: inhibition of (+)-PD128907-induced arrestin translocation in U2OS cells expressing D3R; for selectivity ratio (D2R IC50)/(D3R IC50): β-arrestin-2 recruitment antagonist selectivity
human D2LR = human D2LR (Homo sapiens, UniProt P14416); assay: [125I]IABN displacement binding, HEK cell membranes expressing human D2LR
human D3R [2] = target: T1, human D3R; assay: [125I]IABN displacement binding, HEK cell membranes expressing human D3R
human D2R = human D2R (Homo sapiens, UniProt P14416); assay: [35S]GTPγS binding assay, CHO-hD2 membranes; type: biochemical; conditions: for stimulation of [35S]GTPγS binding, D2R: agonist test; for inhibition of basal [35S]GTPγS binding at D2R: up to 1 μM concentration
human D3R [3] = target: T1, human D3R; assay: [35S]GTPγS binding assay, CHO-hD3 membranes; type: biochemical; conditions: for stimulation of [35S]GTPγS binding, D3R: agonist test; for inhibition of basal [35S]GTPγS binding at D3R: up to 1 μM concentration; for inhibition at 10 µM: read-out: inhibition of D3R basal [35S]GTPγS binding
rats = conditions: cited from earlier work
human D2L receptors = human D2L receptors (Homo sapiens, UniProt P14416); assay: β-Arrestin-2 recruitment assay; type: cell-based; conditions: standard agonist
Chain of human D2L receptors (P14416 whole entry): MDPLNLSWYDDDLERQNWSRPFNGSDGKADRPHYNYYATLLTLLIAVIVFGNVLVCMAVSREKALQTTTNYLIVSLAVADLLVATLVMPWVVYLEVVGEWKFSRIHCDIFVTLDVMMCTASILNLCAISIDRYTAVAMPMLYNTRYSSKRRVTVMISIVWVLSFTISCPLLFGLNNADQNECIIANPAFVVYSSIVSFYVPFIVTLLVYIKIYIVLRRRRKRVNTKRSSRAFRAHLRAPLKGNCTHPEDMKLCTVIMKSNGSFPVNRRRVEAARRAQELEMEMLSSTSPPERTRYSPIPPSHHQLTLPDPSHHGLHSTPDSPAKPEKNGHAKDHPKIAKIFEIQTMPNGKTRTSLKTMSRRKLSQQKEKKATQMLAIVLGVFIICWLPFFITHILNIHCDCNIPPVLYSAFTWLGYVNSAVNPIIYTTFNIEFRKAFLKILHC

Chain of human D2R (P14416 whole entry): as above
T1 sequence (P35462 whole entry): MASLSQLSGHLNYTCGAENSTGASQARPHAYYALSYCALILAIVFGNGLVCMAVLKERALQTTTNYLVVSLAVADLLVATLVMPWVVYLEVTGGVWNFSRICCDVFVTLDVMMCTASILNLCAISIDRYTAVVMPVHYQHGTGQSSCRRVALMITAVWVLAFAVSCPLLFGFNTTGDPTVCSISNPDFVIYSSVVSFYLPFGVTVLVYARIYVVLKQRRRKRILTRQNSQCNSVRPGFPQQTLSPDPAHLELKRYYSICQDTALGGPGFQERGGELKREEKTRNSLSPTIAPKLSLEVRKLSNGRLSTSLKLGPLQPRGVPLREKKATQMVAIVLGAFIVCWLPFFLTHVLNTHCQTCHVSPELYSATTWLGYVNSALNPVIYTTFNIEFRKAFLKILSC
Chain of human D2LR (P14416 whole entry): as the sequence (P14416 whole entry) above

D3R IC50 ± SEM (human D3R [1]) | Compound | Kb (human D2R) [nM] | stimulation of [35S]GTPγS binding, D2R (human D2R) | inhibition of basal [35S]GTPγS binding at D2R (human D2R) | Kb (human D3R [3]) [nM] | stimulation of [35S]GTPγS binding, D3R (human D3R [3]) | inhibition of basal [35S]GTPγS binding at D3R (human D3R [3]) | inhibition at 10 µM (human D3R [3]) [%] | also measured
subnanomolar | COc1ccccc1N1CCN(CCCCNC(=O)c2cn3ccccc3n2)CC1 [Compound 7, N-(4-(4-(2-Methoxyphenyl)piperazin-1-yl)butyl)imidazo[1,2-a]pyridine-2-carboxamide] | – | – | – | – | – | – | – | higher affinity at D2R (human D2LR; compared to compound 6): ~10 fold; enhancement in affinity at the D3R (human D3R [2]; compared to compound 6): ~3 fold
subnanomolar | O=C(NCCCCN1CCN(c2cccc(Cl)c2Cl)CC1)c1cn2ccccc2n1 [Compound 8, N-(4-(4-(2,3-Dichlorophenyl)piperazin-1-yl)butyl)imidazo[1,2-a]pyridine-2-carboxamide] | 1.1 ± 0.2 | did not stimulate | less than 30% | 0.0038 ± 0.0013 | did not stimulate | less than 30% | – | selectivity ratio (D2R IC50)/(D3R IC50) (human D3R [1]): > 400
– | CC(C)(C)c1nc(N2CCN(CCCCNC(=O)c3cc4ccccc4[nH]3)CC2)cc(C(F)(F)F)n1 [Compound 26, N-(4-(4-(2-(tert-Butyl)-6-(trifluoromethyl)pyrimidin-4-yl)piperazin-1-yl)butyl)-1H-indole-2-carboxamide] | – | – | – | – | – | – | – | lower binding potency at D2R (human D2LR; compared to compound 25): 1.8 fold; lower binding potency at D3R (human D3R [2]; compared to compound 25): 2.6 fold
– | CC(C)(C)c1nc(N2CCN(CCCCNC(=O)c3cn4ccncc4n3)CC2)cc(C(F)(F)F)n1 [Compound 30, N-(4-(4-(2-(tert-Butyl)-6-(trifluoromethyl)pyrimidin-4-yl)piperazin-1-yl)butyl)imidazo[1,2-a]pyrazine-2-carboxamide] | 25 ± 6 | did not stimulate | less than 30% | 0.33 ± 0.05 | did not stimulate | less than 30% | 40 to 60 | –
– | CC(C)(C)c1nc(N2CCN(CCCCNC(=O)[C@H]3CC[C@H](c4ccccc4)CC3)CC2)cc(C(F)(F)F)n1 [Compound 39, trans-N-(4-(4-(2-(tert-Butyl)-6-(trifluoromethyl)pyrimidin-4-yl)piperazin-1-yl)butyl)-4-phenylcyclohexanecarboxamide] | – | did not stimulate | less than 30% | – | did not stimulate | less than 30% | 40 to 60 | –
– | CCCN1CCO[C@@H]2c3cc(O)ccc3OC[C@H]21 [PD128907, reference compound] | – | – | – | – | – | – | – | agonist EC80 dose, D3R (human D3R [1]; β-arrestin recruitment, standard agonist): 8 nM
– | CCCN1C[C@H](CSC)C[C@@H]2c3cccc4[nH]cc(c34)C[C@H]21 [pergolide] | – | – | – | – | – | – | – | agonist EC80 dose, D2R (human D2L receptors): 6 nM

Compound | D3R IC50 ± SEM (human D3R [1]) | Kb (human D2R) [nM] | stimulation of [35S]GTPγS binding, D2R (human D2R) | inhibition of basal [35S]GTPγS binding at D2R (human D2R) | Kb (human D3R [3]) [nM] | stimulation of [35S]GTPγS binding, D3R (human D3R [3]) | inhibition of basal [35S]GTPγS binding at D3R (human D3R [3]) | inhibition at 10 µM (human D3R [3]) [%] | also measured
CC(C)(C)c1nc(N2CCN(CCCCNC(=O)c3cn4ccccc4n3)CC2)cc(C(F)(F)F)n1 [Compound 25, N-(4-(4-(2-(tert-Butyl)-6-(trifluoromethyl)pyrimidin-4-yl)piperazin-1-yl)butyl)imidazo[1,2-a]pyridine-2-carboxamide] | subnanomolar | 111 ± 25 | did not stimulate | less than 30% | 1.3 ± 0.4 | did not stimulate | less than 30% | 40 to 60 | cocaine self-administration, cocaine reward, cue-induced reinstatement of cocaine-seeking, cocaine-induced place preference (rats; rat models): significantly attenuating; effect on food reward or spontaneous locomotor activity (rats; rats, at doses decreasing cocaine effects): no effect; cocaine reward, cocaine seeking, preference for cocaine-associated environments, and cocaine induced locomotor activity (rats; rats): significant decreases; selectivity ratio (D2R IC50)/(D3R IC50) (human D3R [1]): > 400; selectivity ratio (D2R Ki/D3R Ki) (human D3R [2]; Table 1, binding selectivity): > 100
